system: TMD8; experiment: Antiproliferative activity against BCL6 dependent human TMD8 cells after 3 days by CellTiter-Glo assay; assay type: functional; details: TMD8, 72 h

In order of rising GI50:
1. COc1cccc(CN2C(=O)CCc3cc4cc(c32)OC/C=C/CO[C@H]2C[C@@H](CO)N(C2)c2cc(n3ncc(C#N)c3n2)N4)c1  3.98 µM
2. N#Cc1cnn2c3cc(nc12)N1C[C@H](C[C@H]1CO)OCCCCOc1cc(cc2c1NC(=O)CC2)N3  15.8 µM
3. Cc1ccccc1CN1C(=O)CCc2cc3cc(c21)OC/C=C/CO[C@H]1C[C@@H](CO)N(C1)c1cc(n2ncc(Cl)c2n1)N3  20 µM

system: OCI-Ly1; experiment: Antiproliferative activity against BCL6 dependent human OCI-LY1 cells after 3 days by CellTiter-Glo assay; assay type: functional; details: OCI-Ly1, 72 h

In order of rising GI50:
1. COc1cccc(CN2C(=O)CCc3cc4cc(c32)OC/C=C/CO[C@H]2C[C@@H](CO)N(C2)c2cc(n3ncc(C#N)c3n2)N4)c1  3.16 µM
2. Cc1ccccc1CN1C(=O)CCc2cc3cc(c21)OC/C=C/CO[C@H]1C[C@@H](CO)N(C1)c1cc(n2ncc(Cl)c2n1)N3  10 µM
3. N#Cc1cnn2c3cc(nc12)N1C[C@H](C[C@H]1CO)OCCCCOc1cc(cc2c1NC(=O)CC2)N3  25.1 µM

system: KARPAS-422; experiment: Antiproliferative activity against BCL6 […] human KARPAS422 cells after 3 days by CellTiter-Glo assay; assay type: functional; details: KARPAS-422, 72 h

Compared with `Cc1ccccc1CN1C(=O)CCc2cc3cc(c21)OC/C=C/CO[C@H]1C[C@@H](CO)N(C1)c1cc(n2ncc(Cl)c2n1)N3`, `COc1cccc(CN2C(=O)CCc3cc4cc(c32)OC/C=C/CO[C@H]2C[C@@H](CO)N(C2)c2cc(n3ncc(C#N)c3n2)N4)c1` is lower in GI50: over 31.6 µM for the first, 5.01 µM for the second.

With `N#Cc1cnn2c3cc(nc12)N1C[C@H](C[C@H]1CO)OCCCCOc1cc(cc2c1NC(=O)CC2)N3` the GI50 was 20 µM.

system: U2932; experiment: Antiproliferative activity against BCL6 dependent human U2932 cells after 3 days by CellTiter-Glo assay; assay type: functional; details: U2932, 72 h

In order of falling GI50:
1. N#Cc1cnn2c3cc(nc12)N1C[C@H](C[C@H]1CO)OCCCCOc1cc(cc2c1NC(=O)CC2)N3  15.8 µM
2. Cc1ccccc1CN1C(=O)CCc2cc3cc(c21)OC/C=C/CO[C@H]1C[C@@H](CO)N(C1)c1cc(n2ncc(Cl)c2n1)N3  10 µM
3. COc1cccc(CN2C(=O)CCc3cc4cc(c32)OC/C=C/CO[C@H]2C[C@@H](CO)N(C2)c2cc(n3ncc(C#N)c3n2)N4)c1  3.98 µM

system: OCI-LY19; experiment: Antiproliferative activity against BCL6 independent human OCI-LY19 cells after 3 days by CellTiter-Glo assay; assay type: functional; details: OCI-LY19, 72 h

In order of falling GI50:
1. N#Cc1cnn2c3cc(nc12)N1C[C@H](C[C@H]1CO)OCCCCOc1cc(cc2c1NC(=O)CC2)N3  15.8 µM
2. Cc1ccccc1CN1C(=O)CCc2cc3cc(c21)OC/C=C/CO[C@H]1C[C@@H](CO)N(C1)c1cc(n2ncc(Cl)c2n1)N3  10 µM
3. COc1cccc(CN2C(=O)CCc3cc4cc(c32)OC/C=C/CO[C@H]2C[C@@H](CO)N(C2)c2cc(n3ncc(C#N)c3n2)N4)c1  5.01 µM

system: OCI-Ly10; experiment: Antiproliferative activity against BCL6 dependent human OCI-LY10 cells after 3 days by CellTiter-Glo assay; assay type: functional; details: OCI-Ly10, 72 h

In order of rising GI50:
1. COc1cccc(CN2C(=O)CCc3cc4cc(c32)OC/C=C/CO[C@H]2C[C@@H](CO)N(C2)c2cc(n3ncc(C#N)c3n2)N4)c1  3.98 µM
2. Cc1ccccc1CN1C(=O)CCc2cc3cc(c21)OC/C=C/CO[C@H]1C[C@@H](CO)N(C1)c1cc(n2ncc(Cl)c2n1)N3  10 µM
3. N#Cc1cnn2c3cc(nc12)N1C[C@H](C[C@H]1CO)OCCCCOc1cc(cc2c1NC(=O)CC2)N3  10 µM

system: OCI-Ly3; experiment: Antiproliferative activity against BCL6 dependent human OCI-LY3 cells after 3 days by CellTiter-Glo assay; assay type: functional; details: OCI-Ly3, 72 h

In order of falling GI50:
1. Cc1ccccc1CN1C(=O)CCc2cc3cc(c21)OC/C=C/CO[C@H]1C[C@@H](CO)N(C1)c1cc(n2ncc(Cl)c2n1)N3  15.8 µM
2. N#Cc1cnn2c3cc(nc12)N1C[C@H](C[C@H]1CO)OCCCCOc1cc(cc2c1NC(=O)CC2)N3  12.6 µM
3. COc1cccc(CN2C(=O)CCc3cc4cc(c32)OC/C=C/CO[C@H]2C[C@@H](CO)N(C2)c2cc(n3ncc(C#N)c3n2)N4)c1  6.31 µM

system: SUD4; experiment: Antiproliferative activity against BCL6 dependent human SUDHL4 cells after 3 days by CellTiter-Glo assay; assay type: functional; details: SU-DHL-4, 72 h

In order of rising GI50:
1. Cc1ccccc1CN1C(=O)CCc2cc3cc(c21)OC/C=C/CO[C@H]1C[C@@H](CO)N(C1)c1cc(n2ncc(Cl)c2n1)N3  6.31 µM
2. COc1cccc(CN2C(=O)CCc3cc4cc(c32)OC/C=C/CO[C@H]2C[C@@H](CO)N(C2)c2cc(n3ncc(C#N)c3n2)N4)c1  6.31 µM
3. N#Cc1cnn2c3cc(nc12)N1C[C@H](C[C@H]1CO)OCCCCOc1cc(cc2c1NC(=O)CC2)N3  25.1 µM

system: AMO1; experiment: Antiproliferative activity against BCL6 dependent human AMO1 cells after 3 days by CellTiter-Glo assay; assay type: functional; details: AMO1, 72 h

In order of rising GI50:
1. COc1cccc(CN2C(=O)CCc3cc4cc(c32)OC/C=C/CO[C@H]2C[C@@H](CO)N(C2)c2cc(n3ncc(C#N)c3n2)N4)c1  10 µM
2. N#Cc1cnn2c3cc(nc12)N1C[C@H](C[C@H]1CO)OCCCCOc1cc(cc2c1NC(=O)CC2)N3  20 µM
3. Cc1ccccc1CN1C(=O)CCc2cc3cc(c21)OC/C=C/CO[C@H]1C[C@@H](CO)N(C1)c1cc(n2ncc(Cl)c2n1)N3  25.1 µM

system: not listed separately; experiment: Inhibition of human CK2 protein; details: not given

Going from `Cc1ccccc1CN1C(=O)CCc2cc3cc(c21)OC/C=C/CO[C@H]1C[C@@H](CO)N(C1)c1cc(n2ncc(Cl)c2n1)N3` to `COc1cccc(CN2C(=O)CCc3cc4cc(c32)OC/C=C/CO[C@H]2C[C@@H](CO)N(C2)c2cc(n3ncc(C#N)c3n2)N4)c1`, the IC50 falls from over 10 µM to 1.2 µM.

`N#Cc1cnn2c3cc(nc12)N1C[C@H](C[C@H]1CO)OCCCCOc1cc(cc2c1NC(=O)CC2)N3` gave an IC50 of 0.4 µM.

system: SU-DHL-2; experiment: Antiproliferative activity against BCL6 dependent human SU-DHL-2 cells after 3 days by CellTiter-Glo assay; assay type: functional; details: SU-DHL-2, 72 h

In order of falling GI50:
1. N#Cc1cnn2c3cc(nc12)N1C[C@H](C[C@H]1CO)OCCCCOc1cc(cc2c1NC(=O)CC2)N3  12.6 µM
2. Cc1ccccc1CN1C(=O)CCc2cc3cc(c21)OC/C=C/CO[C@H]1C[C@@H](CO)N(C1)c1cc(n2ncc(Cl)c2n1)N3  6.31 µM
3. COc1cccc(CN2C(=O)CCc3cc4cc(c32)OC/C=C/CO[C@H]2C[C@@H](CO)N(C2)c2cc(n3ncc(C#N)c3n2)N4)c1  2.51 µM

Reference: ChEMBL document CHEMBL4014321, “Discovery of Pyrazolo[1,5-a]pyrimidine B-Cell Lymphoma 6 (BCL6) Binders and Optimization to High Affinity Macrocyclic Inhibitors” (J Med Chem, 2017)
